Assay results from patent publication US20240148821A1, “PHARMACEUTICAL USE OF CYCLIC PEPTIDE COMPOUND” (CHUGAI SEIYAKU KABUSHIKI KAISHA, priority 2021, published 2024).
Bridge positions count the residues as written; N and C are the ends. Square brackets hold non-standard residues; d marks the D form. Peptide text beside a SMILES is read from it. * marks the point of attachment. hPhe(3-Cl-4-CF3) = N[C@@H](CCc1ccc(C(F)(F)F)c(Cl)c1)C(=O)O; hPhe(3-F,4-CF3) = N[C@@H](CCc1ccc(C(F)(F)F)c(F)c1)C(=O)O; NMePhe(4-Me) = CN[C@@H](Cc1ccc(C)cc1)C(=O)O; NMeNle(6-CHF2) = CN[C@@H](CCCCC(F)F)C(=O)O; NMeGly(cPent) = CN[C@H](C(=O)O)C1CCCC1; NMeCha = CN[C@@H](CC1CCCCC1)C(=O)O; NMeD = CN[C@@H](CC(=O)O)C(=O)O; CH2CONHtBu = CC(C)(C)NC(=O)C*; NMeL = CN[C@@H](CC(C)C)C(=O)O; Chg = N[C@H](C(=O)O)C1CCCCC1; NMeV = CN[C@H](C(=O)O)C(C)C; d(β3hA) = C[C@@H](N)CC(=O)O; NMeAbu = CC[C@H](NC)C(=O)O; NMeS = CN[C@@H](CO)C(=O)O; NMeA = CN[C@@H](C)C(=O)O; Nle = CCCC[C@H](N)C(=O)O; Piperidide = C1CCN(*)CC1; Pyrrolidide = C1CCN(*)C1; dNMeA = CN[C@H](C)C(=O)O; Ac5c = NC1(C(=O)O)CCCC1; Aze = O=C(O)[C@@H]1CCN1; Abu = CC[C@H](N)C(=O)O; CH2CMe2OH = CC(C)(O)C*; Aib = CC(C)(N)C(=O)O; Isopentyl = CC(C)CC*; NEtG = CCNCC(=O)O; Sar = CNCC(=O)O

These molecules were tested on Human pancreatic cancer cell line AsPC-1 (G12D mutation Kras) (assay: AsPC-1 cell growth inhibition (AsPC-1 CGI)). Conditions: read-out: AsPC-1 cell growth inhibition, 50% growth inhibitory concentration (IC50 value); 96 hours, CellTiter-Glo, values classified in ranges.
Assay type: cell-based
Experimental: Test compounds were serially dilated with dimethyl sulfoxide, and 200 nL was then dispensed to a U-bottom 96-well plate using Labcyte Echo. […] The cell suspension was dispensed to a. plate containing a test compound at 100 μL per well and incubated at 37° C. in a 5% carbon dioxide gas incubator. 96 hours later, 80 μL of CellTiter-Glo (Promega) was added to each well and fluorescence was measured.

| Compound | IC50 [nM] |
| --- | --- |
| CC(C)C[C@H]1C(=O)N[C@@H](C(C)C)C(=O)N(C)CC(=O)N(C)CC(=O)N(C)[C@@H](CC2CCCCC2)C(=O)N(C)CC(=O)N[C@@H](CCc2ccc(C(F)(F)F)c(Cl)c2)C(=O)N2CCC[C@H]2C(=O)NC2(CCCC2)C(=O)N(C)[C@@H](CC(C)C)C(=O)N[C@H](C)CC(=O)N1C [Compound 1452] (cyclo([Ac5c][NMeL][d(β3hA)][NMeL]V[Sar][Sar][NMeCha][Sar][hPhe(3-Cl-4-CF3)]P)) | > 500 |
| CC(C)C[C@H]1C(=O)N[C@@H](C2CCCCC2)C(=O)N(C)CC(=O)N(C)CC(=O)N(C)[C@@H](CCCCC(F)F)C(=O)N(C)CC(=O)N[C@@H](CCc2ccc(C(F)(F)F)c(F)c2)C(=O)N(C)[C@@H](CC(C)C)C(=O)NC(C)(C)C(=O)N(C)[C@@H](CC(C)C)C(=O)N[C@H](C(=O)N2CCCC2)CC(=O)N1C [Compound 1453] ([NMeL][Chg][Sar][Sar][NMeNle(6-CHF2)][Sar][hPhe(3-F,4-CF3)][NMeL][Aib][NMeL]D-Pyrrolidide; lactam N-11) | > 500 |
| CC[C@H](C)[C@@H]1NC(=O)[C@H](CC(C)C)N(C)C(=O)C[C@@H](C(=O)N2CCCC2)NC(=O)[C@H](CC(C)C)N(C)C(=O)C(C)(C)NC(=O)[C@H](CC(C)C)N(C)C(=O)[C@H](CCc2ccc(C(F)(F)F)c(F)c2)NC(=O)CN(C)C(=O)[C@H](CCCCC(F)F)N(C)C(=O)CN(C)C(=O)CN(C)C1=O [Compound 1455] ([NMeL]I[Sar][Sar][NMeNle(6-CHF2)][Sar][hPhe(3-F,4-CF3)][NMeL][Aib][NMeL]D-Pyrrolidide; lactam N-11) | > 500 |
| CC[C@H](C)[C@@H]1NC(=O)[C@H](CC(C)C)N(C)C(=O)C[C@@H](C(=O)N2CCCCC2)N(C)C(=O)[C@H](CC(C)C)N(C)C(=O)C(C)(C)NC(=O)[C@H](CC(C)C)N(C)C(=O)[C@H](CCc2ccc(C(F)(F)F)c(F)c2)NC(=O)CN(C)C(=O)[C@H](CCCCC(F)F)N(C)C(=O)CN(C)C(=O)CN(C)C1=O [Compound 1456] ([NMeL]I[Sar][Sar][NMeNle(6-CHF2)][Sar][hPhe(3-F,4-CF3)][NMeL][Aib][NMeL][NMeD]-Piperidide; lactam N-11) | > 500 |
| CC[C@@H]1NC(=O)[C@H]([C@@H](C)CC)NC(=O)[C@H](CC(C)C)N(C)C(=O)C[C@@H](C)NC(=O)[C@H](C(C)C)N(C)C(=O)C2(CCCC2)NC(=O)[C@@H]2CCCN2C(=O)[C@H](CCc2ccc(C(F)(F)F)c(Cl)c2)NC(=O)CN(C)C(=O)[C@H](CC2CCCCC2)N(C)C(=O)CN(C)C1=O [Compound 1459] (cyclo([Abu][Sar][NMeCha][Sar][hPhe(3-Cl-4-CF3)]P[Ac5c][NMeV][d(β3hA)][NMeL]I)) | > 500 |
| CC[C@H](C)[C@@H]1NC(=O)[C@H](C)N(C)C(=O)C[C@@H](C)NC(=O)[C@H](C2CCCC2)N(C)C(=O)C2(CCCC2)NC(=O)[C@@H]2CCCN2C(=O)[C@H](CCc2ccc(C(F)(F)F)c(Cl)c2)NC(=O)[C@@H](C)N(C)C(=O)[C@H](Cc2ccc(C)cc2)N(C)C(=O)CN(C)C(=O)CN(C)C1=O [Compound 1465] (cyclo([Ac5c][NMeGly(cPent)][d(β3hA)][NMeA]I[Sar][Sar][NMePhe(4-Me)][dNMeA][hPhe(3-Cl-4-CF3)]P)) | > 500 |
| CC[C@H](C)[C@@H]1NC(=O)[C@H](CC(C)C)N(C)C(=O)C[C@@H](C)NC(=O)[C@H](CC(C)C)N(C)C(=O)C(C)(C)NC(=O)[C@H](COCC(=O)NC(C)(C)C)N(C)C(=O)[C@H](CCc2ccc(C(F)(F)F)c(Cl)c2)NC(=O)CN(C)C(=O)[C@H](COCCC(C)C)N(C)C(=O)CN(C)C(=O)CN(C)C1=O [Compound 1467] (cyclo([Aib][NMeL][d(β3hA)][NMeL]I[Sar][Sar][NMeS](Isopentyl)[Sar][hPhe(3-Cl-4-CF3)][NMeS](CH2CONHtBu))) | > 500 |
| CC[C@H](C)[C@@H]1NC(=O)[C@H](CC(C)C)N(C)C(=O)C[C@@H](C)NC(=O)[C@H](CC)N(C)C(=O)C2(CCCC2)NC(=O)[C@@H]2CCCN2C(=O)[C@H](CCc2ccc(C(F)(F)F)c(F)c2)NC(=O)CN(C)C(=O)[C@H](CC2CCCCC2)N(C)C(=O)CN(C)C(=O)CN(C)C1=O [Compound 1469] (cyclo([Ac5c][NMeAbu][d(β3hA)][NMeL]I[Sar][Sar][NMeCha][Sar][hPhe(3-F,4-CF3)]P)) | > 500 |
| CC[C@H](C)[C@@H]1NC(=O)[C@H](CC(C)C)N(C)C(=O)C[C@@H](C)NC(=O)[C@H](CC(C)C)N(C)C(=O)C(C)(C)NC(=O)[C@H](COCC(C)(C)O)N(C)C(=O)[C@H](CCc2ccc(C(F)(F)F)c(Cl)c2)NC(=O)CN(C)C(=O)[C@H](COCCC(C)C)N(C)C(=O)[C@@H]2CCN2C(=O)CN(CC)C1=O [Compound 1472] (cyclo([Aib][NMeL][d(β3hA)][NMeL]I[NEtG][Aze][NMeS](Isopentyl)[Sar][hPhe(3-Cl-4-CF3)][NMeS](CH2CMe2OH))) | > 500 |
| CC[C@H](C)[C@@H]1NC(=O)[C@H](C)N(C)C(=O)C[C@@H](C)NC(=O)[C@H](C2CCCC2)N(C)C(=O)C2(CCCC2)NC(=O)[C@@H]2CCCN2C(=O)[C@H](CCc2ccc(C(F)(F)F)c(Cl)c2)NC(=O)CN(C)C(=O)[C@H](CC2CCCCC2)N(C)C(=O)CN(C)C(=O)CN(C)C1=O [Compound 1478] (cyclo([Ac5c][NMeGly(cPent)][d(β3hA)][NMeA]I[Sar][Sar][NMeCha][Sar][hPhe(3-Cl-4-CF3)]P)) | > 500 |
| CC[C@H](C)[C@@H]1NC(=O)[C@H](CC(C)C)N(C)C(=O)C[C@@H](C(=O)N2CCCCC2)N(C)C(=O)[C@H](CC(C)C)N(C)C(=O)C(C)(C)NC(=O)[C@H](COCC(=O)NC(C)(C)C)N(C)C(=O)[C@H](CCc2ccc(C(F)(F)F)c(Cl)c2)NC(=O)CN(C)C(=O)[C@H](COCCC(C)C)N(C)C(=O)CN(C)C(=O)CN(C)C1=O [Compound 1480] ([NMeL]I[Sar][Sar][NMeS](Isopentyl)[Sar][hPhe(3-Cl-4-CF3)][NMeS](CH2CONHtBu)[Aib][NMeL][NMeD]-Piperidide; lactam N-11) | > 500 |
| CC[C@H](C)[C@@H]1NC(=O)[C@H](CC(C)C)N(C)C(=O)C[C@@H](C)NC(=O)[C@H](CC(C)C)N(C)C(=O)C(C)(C)NC(=O)[C@H](COCC(C)(C)O)N(C)C(=O)[C@H](CCc2ccc(C(F)(F)F)c(Cl)c2)NC(=O)CN(C)C(=O)[C@H](COCCC(C)C)N(C)C(=O)CN(CC)C(=O)CN(C)C1=O [Compound 1484] (cyclo([Aib][NMeL][d(β3hA)][NMeL]I[Sar][NEtG][NMeS](Isopentyl)[Sar][hPhe(3-Cl-4-CF3)][NMeS](CH2CMe2OH))) | > 500 |
| CC[C@H](C)[C@@H]1NC(=O)[C@H](CC(C)C)N(C)C(=O)C[C@@H](C(=O)N2CCCC2)NC(=O)[C@H](CC(C)C)N(C)C(=O)C2(CCCC2)NC(=O)[C@@H]2CCCN2C(=O)[C@H](CCc2ccc(C(F)(F)F)c(F)c2)NC(=O)CN(C)C(=O)[C@H](CC2CCCCC2)N(C)C(=O)CN(C)C(=O)CN(C)C1=O [Compound 1489] ([NMeL]I[Sar][Sar][NMeCha][Sar][hPhe(3-F,4-CF3)]P[Ac5c][NMeL]D-Pyrrolidide; lactam N-11) | > 500 |
| CCCC[C@@H]1NC(=O)[C@H](CC(C)C)N(C)C(=O)C[C@@H](C)NC(=O)[C@H](CC(C)C)N(C)C(=O)C2(CCCC2)NC(=O)[C@@H]2CCCN2C(=O)[C@H](CCc2ccc(C(F)(F)F)c(F)c2)NC(=O)CN(C)C(=O)[C@H](CC2CCCCC2)N(C)C(=O)CN(C)C(=O)CN(C)C1=O [Compound 1490] (cyclo([Ac5c][NMeL][d(β3hA)][NMeL][Nle][Sar][Sar][NMeCha][Sar][hPhe(3-F,4-CF3)]P)) | > 500 |
